Results published in patent US7763585B2, “Methods for inhibiting tumor cell proliferation” (priority 2003, dated 2010).

Legend:
Stat3 [1] = assay: EMSA of nuclear extracts from treated cells with constitutively-activated Stat3; assay type: cell-based, mouse and human; conditions: Src-transformed fibroblasts and human tumor cells, FIG. 3
Method: FIG. 3 is a photograph showing the evaluation of effects of platinum complexes on Stat3 activation analyzed by EMSA. Nuclear extracts prepared from malignant cells that contain constitutively-activated Stat3 and treated with platinum complexes for the indicated times were analyzed by EMSA using hSIE oligonucleotide probe. Extracts were prepared from v-Src-transformed NIH3T3/v-Src; human breast carcinoma MDA-MB-231; MDA-MB-435; and […]. Position of Stat3:DNA complex in gel is shown.
Nuclear extracts were prepared from cell lines and used for EMSA as previously described (Turkson et al., 1998; Yu et al., 1995; Garcia et al., 1997). In some cases, cells were pre-treated with platinum complexes for the indicated times prior to harvesting. Where cells were stimulated with EGF (6 ng/ml), duration of treatment was 15 min. Nuclear extracts were pre-incubated with compounds for 30 min at room temperature prior to incubation with radiolabeled probe. The ^32P-radiolabeled oligonucleotide probes used are hSIE (high affinity sis-inducible element, m67 variant, 5′-[…]-3′) (SEQ ID NO:1) that binds both Stat1 and Stat3 (Garcia et al., 1997; Wagner et al., 1990), MGFe (mammary gland factor element from the bovine β-casein gene promoter, 5′-[…]-3′) (SEQ ID NO:2) that binds Stat1 and Stat5 (Gouilleux et al., 1995; Seidel et al., 1995), the NF-κB binding oligo (5′-[…]-3′) (SEQ ID NO:3), and the oligonucleotide sequence from the DHFR promoter that binds E2F1.
The effects of platinum complexes on persistent activation of Stat3 in Src-transformed fibroblasts and human tumor cells were investigated. […] These studies were then extended to evaluate the effects of the platinum complexes on Stat3 transcriptional activity.

Stat3:Stat3 = target: T1, Stat3:Stat3 (Mus musculus, UniProt P42227); assay: EMSA, disruption of Stat3:Stat3 DNA-binding activity in vitro (hSIE probe); assay type: biochemical; conditions: for Level of DNA-binding activity of Stat3 (EMSA): EGF-stimulated fibroblast nuclear extracts, 30 min preincubation, FIG. 1A
T1 construct: endogenous in cells; host or cells: EGF-stimulated fibroblasts (nuclear extract)
Method: (§1) FIGS. 1A-D are photographs showing EMSA analyses of DNA-binding activities and effects of platinum complexes. Nuclear extracts containing activated Stat1, Stat3 and Stat5 are treated with the indicated concentrations of platinum complex ISSCPA-1, ISSCPA-3, ISSCPA-7, or PtCl4 for 30 min at room temperature prior to incubation with radiolabeled oligonucleotide probes. […] Positions of complexes of DNA with STAT, E2F1 or NFκB (p65, p50) in gel are labeled. Control lanes represent nuclear extracts that are not pre-incubated with platinum complexes.
(§2) Nuclear extracts were prepared from cell lines and used for EMSA as previously described (Turkson et al., 1998; Yu et al., 1995; Garcia et al., 1997). In some cases, cells were pre-treated with platinum complexes for the indicated times prior to harvesting. Where cells were stimulated with EGF (6 ng/ml), duration of treatment was 15 min. Nuclear extracts were pre-incubated with compounds for 30 min at room temperature prior to incubation with radiolabeled probe. The ^32P-radiolabeled oligonucleotide probes used are hSIE (high affinity sis-inducible element, m67 variant, 5′-[…]-3′) (SEQ ID NO:1) that binds both Stat1 and Stat3 (Garcia et al., 1997; Wagner et al., 1990), MGFe (mammary gland factor element from the bovine β-casein gene promoter, 5′-AGATTTCTAGGAATTCAA-3′) (SEQ ID NO:2) that binds Stat1 and Stat5 (Gouilleux et al., 1995; Seidel et al., 1995), the NF-κB binding oligo (5′-[…]-3′) (SEQ ID NO:3), and the oligonucleotide sequence from the DHFR promoter that binds E2F1.
(§3) Platinum compounds were evaluated for inhibitory activity against STAT DNA-binding in vitro.

B16 melanoma = assay: Mouse model of melanoma tumor, intra-tumoral injection; assay type: in vivo; conditions: direct intra-tumoral injection, monitored up to 9 days, FIG. 8
Method: (§4) FIGS. 8A-C show tumor regression induced by platinum (IV) chloride. Tumor models in mice using B16 melanoma and CT26 colon tumors both of which harbor constitutively-active Stat3 were treated by intra-tumoral injection with doses of platinum (IV) chloride and tumor sizes monitored every other day for up to 9 days. FIG. 8A is a photograph showing extracted tumor tissues were analyzed for Stat3 activity in in vitro DNA-binding assays and EMSA analysis. FIG. 8B and FIG. 8C show tumor sizes monitored by calipers plotted against days of treatment.
(§5) The antitumor efficacy of platinum (IV) chloride of the invention using mouse models of melanoma and colon tumors was evaluated. Established tumors were directly injected with doses of platinum (IV) chloride and tumor size subsequently monitored. […] In parallel studies, treated tumors were extracted and Stat3 activity determined on the basis of DNA-binding activity analyzed by EMSA. […] Together, the findings support inhibition of constitutively-active STATs by platinum (IV) chloride leads to regression of melanoma and colon tumors.

CT26 colon tumors = assay: Mouse model of colon tumor, intra-tumoral injection; assay type: in vivo; conditions: direct intra-tumoral injection, monitored up to 9 days, FIG. 8
Method: as §4, §5

Stat3 [2] = target: T2, Stat3 (Mus musculus, UniProt P42227); assay: Stat3 DNA-binding activity (EMSA) in extracted treated tumors; assay type: in vivo; conditions: FIG. 8A
T2 construct: from tissue; host or cells: extracted B16 melanoma / CT26 colon tumour tissue from mice
Method: as §4, §5

Stat1:Stat3 = target: T3, Stat1:Stat3 (Mus musculus, UniProt P42225+P42227); assay: EMSA, disruption of Stat1:Stat3 DNA-binding activity in vitro (hSIE probe); assay type: biochemical
T3 construct: endogenous in cells; host or cells: EGF-stimulated fibroblasts (nuclear extract)
Method: as §1, §2, §3

Stat1:Stat1 = target: T4, Stat1:Stat1 (Mus musculus, UniProt P42225); assay: EMSA, disruption of Stat1:Stat1 DNA-binding activity in vitro (hSIE probe); assay type: biochemical
T4 construct: endogenous in cells; host or cells: EGF-stimulated fibroblasts (nuclear extract)
T4 sequence (P42225 2-749 limits assumed): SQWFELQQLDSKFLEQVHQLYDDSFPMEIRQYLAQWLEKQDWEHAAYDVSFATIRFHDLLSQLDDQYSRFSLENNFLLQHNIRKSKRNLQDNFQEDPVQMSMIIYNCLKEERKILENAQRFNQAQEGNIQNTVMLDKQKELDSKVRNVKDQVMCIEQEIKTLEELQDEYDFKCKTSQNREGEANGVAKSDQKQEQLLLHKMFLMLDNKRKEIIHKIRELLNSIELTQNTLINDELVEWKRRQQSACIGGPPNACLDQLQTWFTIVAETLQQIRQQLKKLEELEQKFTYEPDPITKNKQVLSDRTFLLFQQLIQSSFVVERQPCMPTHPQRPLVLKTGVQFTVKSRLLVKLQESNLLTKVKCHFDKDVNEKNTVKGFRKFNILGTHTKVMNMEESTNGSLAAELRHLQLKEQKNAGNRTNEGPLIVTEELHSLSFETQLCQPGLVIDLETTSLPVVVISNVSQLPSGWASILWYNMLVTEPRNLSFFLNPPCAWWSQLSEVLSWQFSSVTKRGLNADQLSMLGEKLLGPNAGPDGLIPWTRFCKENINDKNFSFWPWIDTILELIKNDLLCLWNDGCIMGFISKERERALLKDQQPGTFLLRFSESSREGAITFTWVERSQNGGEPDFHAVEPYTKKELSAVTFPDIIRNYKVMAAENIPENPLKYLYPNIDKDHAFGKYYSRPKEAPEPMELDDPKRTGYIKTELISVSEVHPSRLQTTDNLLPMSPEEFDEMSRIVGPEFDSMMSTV
Method: as §1, §2, §3

Stat5 = assay: EMSA, Stat5 DNA-binding activity in vitro (MGFe probe); assay type: biochemical, mouse; conditions: FIG. 1B
Method: as §1, §2, §3

T1 sequence (P42227 2-770 limits assumed): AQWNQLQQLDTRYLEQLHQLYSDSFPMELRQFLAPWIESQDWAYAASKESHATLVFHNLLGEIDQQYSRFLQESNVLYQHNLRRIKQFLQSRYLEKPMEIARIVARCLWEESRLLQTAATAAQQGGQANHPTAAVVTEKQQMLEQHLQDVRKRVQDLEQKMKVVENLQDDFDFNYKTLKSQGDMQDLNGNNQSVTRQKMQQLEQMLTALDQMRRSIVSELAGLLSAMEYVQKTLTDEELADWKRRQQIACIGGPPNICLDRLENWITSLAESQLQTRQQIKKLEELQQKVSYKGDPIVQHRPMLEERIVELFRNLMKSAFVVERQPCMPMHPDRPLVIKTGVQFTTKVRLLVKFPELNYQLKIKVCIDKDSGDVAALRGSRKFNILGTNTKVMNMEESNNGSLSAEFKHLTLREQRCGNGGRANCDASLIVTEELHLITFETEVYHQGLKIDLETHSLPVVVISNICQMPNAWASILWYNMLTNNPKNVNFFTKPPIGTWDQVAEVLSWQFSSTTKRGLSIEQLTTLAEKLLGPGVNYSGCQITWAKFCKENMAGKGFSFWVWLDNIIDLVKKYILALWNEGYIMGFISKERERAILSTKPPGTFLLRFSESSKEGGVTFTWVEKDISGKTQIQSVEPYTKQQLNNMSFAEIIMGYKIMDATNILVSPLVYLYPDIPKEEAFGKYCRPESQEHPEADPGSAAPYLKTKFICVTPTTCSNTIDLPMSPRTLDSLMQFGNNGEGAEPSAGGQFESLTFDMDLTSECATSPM
T2 sequence (P42227 whole entry): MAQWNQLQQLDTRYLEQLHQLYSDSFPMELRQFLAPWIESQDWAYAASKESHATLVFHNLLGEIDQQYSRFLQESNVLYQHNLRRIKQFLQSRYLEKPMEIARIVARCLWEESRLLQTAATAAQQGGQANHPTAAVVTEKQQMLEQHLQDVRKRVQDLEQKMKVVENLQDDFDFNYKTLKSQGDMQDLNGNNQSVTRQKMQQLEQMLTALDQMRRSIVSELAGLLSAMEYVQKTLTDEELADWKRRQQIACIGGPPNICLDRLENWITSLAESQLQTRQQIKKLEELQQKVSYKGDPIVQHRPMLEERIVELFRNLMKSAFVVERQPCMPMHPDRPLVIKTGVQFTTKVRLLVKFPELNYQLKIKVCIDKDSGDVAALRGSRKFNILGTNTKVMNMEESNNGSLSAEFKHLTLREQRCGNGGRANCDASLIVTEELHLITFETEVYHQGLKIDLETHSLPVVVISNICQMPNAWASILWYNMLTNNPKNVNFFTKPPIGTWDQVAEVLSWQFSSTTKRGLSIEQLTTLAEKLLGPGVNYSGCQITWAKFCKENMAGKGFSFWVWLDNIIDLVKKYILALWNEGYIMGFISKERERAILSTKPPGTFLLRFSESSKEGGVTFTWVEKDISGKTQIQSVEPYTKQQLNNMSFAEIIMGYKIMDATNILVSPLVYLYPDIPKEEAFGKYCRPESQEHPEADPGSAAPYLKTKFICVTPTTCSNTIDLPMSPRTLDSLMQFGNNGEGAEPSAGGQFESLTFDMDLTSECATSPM
T3 sequence (P42227 2-770 limits assumed, one chain of several): as the sequence (P42227 2-770 limits assumed) above

Structure (SMILES)	Inhibition of constitutive Stat3 activation in treated cells (EMSA of nuclear extracts) (Stat3 [1])	Level of DNA-binding activity of Stat3 (EMSA) (Stat3:Stat3)	Tumor size, melanoma tumors (B16 melanoma)	Tumor size, colon tumors (CT26 colon tumors)	Constitutively-active Stat3 in treated tumors (DNA-binding activity by EMSA) (Stat3 [2])	IC50 (Stat3:Stat3; nuclear extracts pre-incubated 30 min at room temperature, read-out: IC50 for disruption of STAT DNA-binding activity in vitro, Stat3:Stat3) [µM]	IC50 (Stat1:Stat3) [µM]	IC50 (Stat1:Stat1) [µM]	Level of DNA-binding activity of Stat1 (EMSA) (Stat1:Stat1; EGF-stimulated fibroblast nuclear extracts, 30 min preincubation, hSIE probe, FIG. 1A)	Inhibitory effect on Stat5 DNA-binding activity (EMSA) (Stat5)
N.N.[Cl][Pt][Cl] [Cisplatin, reference compound]	modest or negligible	–	–	–	–	–	–	–	–	–
[Cl][Pt]([Cl])([Cl])[Cl] [platinum (IV) chloride]	–	disrupts DNA-binding activity of Stat3	complete regression	complete regression	strongly attenuated	–	–	–	–	–
[Cl][Pt]1([Cl])[NH]CC[NH]1 [ISS CPA-3]	modest or negligible	dose-dependent reduction	–	–	–	5.8	27	8.3	dose-dependent reduction	much reduced inhibitory effect
